This passage reports Kd results from publication PMC11653366, “The conformation of the nSrc specificity-determining loop in the Src SH3 domain is modulated by a WX conserved sequence motif found in SH3 domains” (Frontiers in Molecular Biosciences, 2024).

Assay [1] deals with T1, Abl SH3 (Homo sapiens, UniProt P00519).
T1 construct: His6-SUMO (N, cleaved yes); made in house; host or cells: Escherichia coli BL21 DE3
Also noted: method as in Pisabarro and Serrano, 1996; Pisabarro et al., 1998. As to conditions: Abl SH3, previously published; ref Pisabarro and Serrano, 1996; Pisabarro et al., 1998; read-out: affinity (K D); cited from earlier work.

A further assay concerns the target Fyn SH3. Also noted: method as in Pisabarro and Serrano, 1996; Pisabarro et al., 1998. As to conditions: Fyn SH3, previously published; ref Pisabarro and Serrano, 1996; Pisabarro et al., 1998; read-out: affinity (K D); cited from earlier work.
In the next assay the target is T2, AblSrc SH3 (Homo sapiens, UniProt P00519, A74S/D77E/E98D/G76T/H95T/N78T/N96E/S75R/V73E).
T2 construct: His6-SUMO (N, cleaved yes); made in house; host or cells: Escherichia coli BL21 DE3
T2 sequence (P00519 61-121 V73E/A74S/S75R/G76T/D77E/N78T/H95T/N96E/E98D limits assumed): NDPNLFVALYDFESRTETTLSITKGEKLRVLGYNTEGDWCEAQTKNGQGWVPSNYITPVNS
Kind of assay: Fluorescence anisotropy binding, AblSrc SH3 chimera (Abl SH3 with Src RT and nSrc loops). The conditions noted are these: 30 nM fluorescent peptide, running buffer + 0.1 mg/mL BSA + 0.5 mM Thesit, average of triplicate experiments, >1,000 = undetectable. The source says:
(§1) Therefore, we wanted to engineer chimeric proteins to test if these loops alone could mediate specificity switching. In our chimeras, we swapped both the RT (sequence: ^96ESRTET^101) and nSrc (^117TEGD^120) loops of Src with the RT (^73VASGDN^78) and nSrc (^95HNGE^98) loop sequences of Abl, and vice versa in each SH3 domain. We termed the resulting proteins, SrcAbl and AblSrc, where the subscript indicates the sequence identity of both the RT and nSrc loops.
(§2) Sequences corresponding to the Abl and Src SH3 (residues 84-145, UniProt ID SRC_HUMAN) domains were used for the wild-type SH3 domains. All proteins were expressed as His6-SUMO fusion proteins using the pET28a (+) plasmid (Genscript). […]
(§3) Briefly, plasmids were transformed into BL21 DE3 chemically competent Escherichia coli cells. […] SDS-PAGE was used to assess protein purity and the absorbance at λ = 280 nm with the calculated extinction coefficient (s), by Expasy ProtParam, was used to calculate protein concentration ([Wilkins et al., 1999]).
(§4) Fluorescence anisotropy assays were performed using a BioTek Synergy H1 plate reader, as previously described [([Tahti et al., 2023]; [Gao et al., 2020]; [Wofford et al., 2021]; [Valgardson et al., 2019])]. […] Determined K D values were the average calculated from triplicate experiments ([Cushing et al., 2008]). […]
For orientation: Polarisation of emitted light reports the rotation of a fluorescent probe.

For assay [2], the target named is T1, Abl SH3. Kind of assay: Fluorescence anisotropy binding, Abl SH3. As to conditions: 30 nM fluorescent peptide, running buffer + 0.1 mg/mL BSA + 0.5 mM Thesit, average of triplicate experiments.
Excerpt: (§5) Sequences corresponding to the Abl and Src SH3 (residues 84-145, UniProt ID SRC_HUMAN) domains were used for the wild-type SH3 domains. All proteins were expressed as His6-SUMO fusion proteins using the pET28a (+) plasmid (Genscript). Expression and purification protocols were similar to those used previously for other SLiM-binding domains [([Tahti et al., 2023]; [Gao et al., 2020]; [Wofford et al., 2021])]. All sequences used are in the Supporting Information.
(§6) Briefly, plasmids were transformed into BL21 DE3 chemically competent Escherichia coli cells. Selected colonies were grown in Terrific Broth (TB) at 37°C with shaking at 210 rpm. Once an optical density (OD) of 0.6–0.8 at λ = 600 nm was reached, protein expression was induced by the addition of 0.15 mM isopropyl-β-D-1-thiogalactopyranoside (IPTG) for 16–18 h at 18°C. […] SDS-PAGE was used to assess protein purity and the absorbance at λ = 280 nm with the calculated extinction coefficient (s), by Expasy ProtParam, was used to calculate protein concentration ([Wilkins et al., 1999]).
as §4

The target of the next assay is T3, SrcAbl SH3 (Homo sapiens, UniProt P12931, D120E/E100D/E118N/E96V/R98S/S97A/T101N/T117H/T99G).
T3 construct: His6-SUMO (N, cleaved yes); made in house; host or cells: Escherichia coli BL21 DE3
Kind of assay: Fluorescence anisotropy binding, SrcAbl SH3 chimera (Src SH3 with Abl RT and nSrc loops). The conditions noted are these: 30 nM fluorescent peptide, running buffer + 0.1 mg/mL BSA + 0.5 mM Thesit, average of triplicate experiments.

A further assay concerns the target T4, W122C SrcAbl SH3 (Homo sapiens, UniProt P12931, D120E/E100D/E118N/E96V/R98S/S97A/T101N/T117H/T99G/W122C).
T4 construct: His6-SUMO (N, cleaved yes); made in house; host or cells: Escherichia coli BL21 DE3
The experiment in a line: Fluorescence anisotropy binding, W122C SrcAbl SH3. As to conditions: 30 nM fluorescent peptide, running buffer + 0.1 mg/mL BSA + 0.5 mM Thesit, average of triplicate experiments.
Excerpt: as §1, §2, §3, §4

The target of the next assay is T5, C100W Abl SH3 (Homo sapiens, UniProt P00519, C100W).
T5 construct: His6-SUMO (N, cleaved yes); made in house; host or cells: Escherichia coli BL21 DE3
T5 sequence (P00519 61-121 C100W limits assumed): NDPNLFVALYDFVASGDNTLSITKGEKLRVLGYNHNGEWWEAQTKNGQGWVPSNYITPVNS
Kind of assay: Fluorescence anisotropy binding, C100W Abl SH3. As to conditions: 30 nM fluorescent peptide, running buffer + 0.1 mg/mL BSA + 0.5 mM Thesit, average of triplicate experiments, >1,000 = undetectable.
Excerpt: as §5, §6, §4

Another assay addresses T6, Src SH3 (Homo sapiens, UniProt P12931).
T6 construct: His6-SUMO (N, cleaved yes); made in house; host or cells: Escherichia coli BL21 DE3
The experiment in a line: Fluorescence anisotropy binding, Src SH3. The conditions noted are these: 30 nM fluorescent peptide, running buffer + 0.1 mg/mL BSA + 0.5 mM Thesit, average of triplicate experiments, >1,000 = no binding.

In a further assay the target is T7, W122C Src SH3 (Homo sapiens, UniProt P12931, W122C).
T7 construct: His6-SUMO (N, cleaved yes); made in house; host or cells: Escherichia coli BL21 DE3
The experiment in a line: Fluorescence anisotropy binding, W122C Src SH3. The conditions noted are these: 30 nM fluorescent peptide, running buffer + 0.1 mg/mL BSA + 0.5 mM Thesit, average of triplicate experiments.

Several values for one entry are separate records, joined by “and”; a condition that tells them apart may be missing. Identical values can stand only once. Like-named read-outs stand apart in the source and are kept apart here. Peptide text beside a SMILES is read from it. * marks the point of attachment. FITC = O=C1OC2(c3ccc(O)cc3Oc3cc(O)ccc32)c2ccc(NC(=S)*)cc21; Ahx = NCCCCCC(=O)O

T1 sequence (P00519 61-121 limits assumed): as the sequence (P00519 61-121 C100W limits assumed) above, with W40C counted along it

“RAPTMPPPLPP [initial ligand, derived from the 3BP1 protein]”: the Kd with Abl SH3 [1] and on Fyn SH3 was 30 µM each time.
As to `CC(C)C[C@H](NC(=O)CCCCCNC(=S)Nc1ccc2c(c1)C(=O)OC21c2ccc(O)cc2Oc2cc(O)ccc21)C(=O)N[C@@H](C)C(=O)N[C@@H](CO)C(=O)N[C@@H](CCCNC(=N)N)C(=O)N1CCC[C@H]1C(=O)N[C@@H](CC(C)C)C(=O)N1CCC[C@H]1C(=O)N[C@@H](CC(C)C)C(=O)N[C@@H](CC(C)C)C(=O)N1CCC[C@H]1C(=O)O` [F*-PLLP], the Kd at AblSrc SH3 was more than 1000 µM; at Abl SH3 [2], more than 1000 µM; on SrcAbl SH3 it was 140 ± 20 µM; at W122C SrcAbl SH3, more than 1000 µM; at C100W Abl SH3, more than 1000 µM.
Consider `C[C@H](N)C(=O)N1CCC[C@H]1C(=O)N[C@H](C(=O)N[C@@H](Cc1ccc(O)cc1)C(=O)N[C@@H](CO)C(=O)N1CCC[C@H]1C(=O)N1CCC[C@H]1C(=O)N1CCC[C@H]1C(=O)N1CCC[C@H]1C(=O)N1CCC[C@H]1C(=O)O)[C@@H](C)O` [p40] (H-APTYSPPPPP-OH; N-terminus and C-terminus assumed), for which the Kd at Fyn SH3 was 472 µM and 470 µM; at Src SH3, more than 1000 µM.
Consider `C[C@H](NC(=O)CCCCCNC(=S)Nc1ccc2c(c1)C(=O)OC21c2ccc(O)cc2Oc2cc(O)ccc21)C(=O)N1CCC[C@H]1C(=O)N[C@H](C(=O)N[C@@H](Cc1ccc(O)cc1)C(=O)N[C@@H](CO)C(=O)N1CCC[C@H]1C(=O)N1CCC[C@H]1C(=O)N1CCC[C@H]1C(=O)N1CCC[C@H]1C(=O)N1CCC[C@H]1C(=O)O)[C@@H](C)O` [F*-p40] ({FITC-Ahx}-APTYSPPPPP-OH), for which the Kd at AblSrc SH3 is 210 ± 30 µM; at Abl SH3 [2], 3.1 ± 0.4 µM; at SrcAbl SH3, 130 ± 40 µM; on W122C SrcAbl SH3, 450 ± 190 µM; on Src SH3, more than 1000 µM; at W122C Src SH3, more than 1000 µM. Further, at C100W Abl SH3, the Kd was determined as 55 ± 20 µM.
